Results from article PMC11189555, “Aryl amino acetamides prevent Plasmodium falciparum ring development via targeting the lipid-transfer protein PfSTART1” (Nature Communications, 2024).

Experiments:
[1] = system: PopD-D7 M-833 resistant clone (PfSTART1 N309K); assay: Growth inhibition assay (72 h, LDH activity); format: cell-based, Plasmodium falciparum
Description: (§1) The drug was then removed, and parasites were allowed to recover. Another cycle of drug treatment (3 μM M-833) was then resumed. The resistant lines were cloned out by limiting dilution (diluting the culture into a 96-well plate to achieve an average of ~0.3 parasites per well), prior to growth inhibition assays and genomic DNA (gDNA) extraction (DNeasy Blood and Tissue kit (Qiagen)[18].
(§2) Parasite growth assays with inhibitory compounds were performed as per[11] and are fully described in the Supplementary Information. […]
(§3) Growth inhibition assays. Synchronised ring-stage parasites (0.3-0.6% parasitemia, 2% haematocrit) were grown for 72 h in a serial-dilution of the compound under […]
(§4) and compound 4. Note that M-833 was first purchased from MolPort (MolPort -002-267-916) then made in-house at WEHI: the differences observed in EC50s across experiments are attributed to the different batches of M -833. For some experiments, 0, 0.25 or 2.5 mM of glucosamine (GlcN) was also added. Experiments were set up in technical duplicates or triplicates. Following a freeze -thaw cycle, lactate dehydrogenase (LDH) activity was assessed as an indicator of parasite growt h 5. 30 μL of parasite culture was incubated for 30 min in the dark with 75 μL Malstat mixture (0.1 M Tris pH 9.0, 20 g/L lactic acid, pH 7.5, 0.2% Triton-X100, 0.5 g/L acetylpyridine adenine dinucleotide (APAD, Sigma), 200 μg/mL nitroblue tetrazolium (NBT; Sigma), 1 μg/mL phenozine ethosulfate (PES; Sigma)). Absorbance was then measured at 650 nm, transformed using the formula below, plotted against the logarithm of the concentrations, and a non-linear regression (log(inhibitor) vs. response, variable slope) was calculated using GraphPad Prism to assess the half-inhibitory […]
(§5) Growth inhibition % = (1 − average(sample)− average(uRBC)) ∗ 100 […]
(§6) The DMSO samples were also used to assess growth of parasite in the presence of 0.25 and 2.5 mM GlcN (normalised by DMSO in 0 mM GlcN). […]

[2] = system: PopE-F10 M-833 resistant clone (PfSTART1 N330K); assay: Growth inhibition assay (72 h, LDH activity); format: cell-based, Plasmodium falciparum
Description: as §1, §2, §3, §4, §5, §6

CC(C)(Oc1ccc(Cl)c(S(=O)(=O)N2CCOCC2)c1)C(=O)Nc1ccc(F)c(Cl)c1 [compound 3]
EC50 ([1]; Plasmodium falciparum, Supplementary Table 1, PopD-D7 (N309K), 72 h, read-out: EC50): 1400 nM | resistance of the line compared with 3D7 ([1]; PopD-D7 (N309K), Fig 4B): highly resistant | (av-uRBC) / (DMSO-uRBC) x100 ([1]; PopD-D7, 3.04832 nM, biological replicate 1): 117.893 | (av-uRBC) / (DMSO-uRBC) x100 ([1]; PopD-D7, 3.04832 nM, biological replicate 2): 107.059 | (av-uRBC) / (DMSO-uRBC) x100 ([1]; PopD-D7, 3.04832 nM, biological replicate 3): 122.96 | (av-uRBC) / (DMSO-uRBC) x100 ([1]; PopD-D7, 9.14495 nM, biological replicate 1): 119.508 | (av-uRBC) / (DMSO-uRBC) x100 ([1]; PopD-D7, 9.14495 nM, biological replicate 2): 110.415 | (av-uRBC) / (DMSO-uRBC) x100 ([1]; PopD-D7, 9.14495 nM, biological replicate 3): 124.421 | (av-uRBC) / (DMSO-uRBC) x100 ([1]; PopD-D7, 27.4348 nM, biological replicate 1): 119.539 | (av-uRBC) / (DMSO-uRBC) x100 ([1]; PopD-D7, 27.4348 nM, biological replicate 2): 110.363 | (av-uRBC) / (DMSO-uRBC) x100 ([1]; PopD-D7, 27.4348 nM, biological replicate 3): 140.932 | (av-uRBC) / (DMSO-uRBC) x100 ([1]; PopD-D7, 82.3045 nM, biological replicate 1): 115.279 | (av-uRBC) / (DMSO-uRBC) x100 ([1]; PopD-D7, 82.3045 nM, biological replicate 2): 110.433 | (av-uRBC) / (DMSO-uRBC) x100 ([1]; PopD-D7, 82.3045 nM, biological replicate 3): 132.525 | (av-uRBC) / (DMSO-uRBC) x100 ([1]; PopD-D7, 246.914 nM, biological replicate 1): 110.69 | (av-uRBC) / (DMSO-uRBC) x100 ([1]; PopD-D7, 246.914 nM, biological replicate 2): 106.686 | (av-uRBC) / (DMSO-uRBC) x100 ([1]; PopD-D7, 246.914 nM, biological replicate 3): 118.688 | (av-uRBC) / (DMSO-uRBC) x100 ([1]; PopD-D7, 740.741 nM, biological replicate 1): 93.2195 | (av-uRBC) / (DMSO-uRBC) x100 ([1]; PopD-D7, 740.741 nM, biological replicate 2): 100.295 | (av-uRBC) / (DMSO-uRBC) x100 ([1]; PopD-D7, 740.741 nM, biological replicate 3): 70.3418 | (av-uRBC) / (DMSO-uRBC) x100 ([1]; PopD-D7, 2222.22 nM, biological replicate 1): 51.7543 | (av-uRBC) / (DMSO-uRBC) x100 ([1]; PopD-D7, 2222.22 nM, biological replicate 2): 59.804 | (av-uRBC) / (DMSO-uRBC) x100 ([1]; PopD-D7, 2222.22 nM, biological replicate 3): 18.6053 | (av-uRBC) / (DMSO-uRBC) x100 ([1]; PopD-D7, 6666.67 nM, biological replicate 1): 13.8697 | (av-uRBC) / (DMSO-uRBC) x100 ([1]; PopD-D7, 6666.67 nM, biological replicate 2): 12.8436 | (av-uRBC) / (DMSO-uRBC) x100 ([1]; PopD-D7, 6666.67 nM, biological replicate 3): 12.5413 | (av-uRBC) / (DMSO-uRBC) x100 ([1]; PopD-D7, 20000 nM, biological replicate 1): 8.262 | (av-uRBC) / (DMSO-uRBC) x100 ([1]; PopD-D7, 20000 nM, biological replicate 2): 6.955 | (av-uRBC) / (DMSO-uRBC) x100 ([1]; PopD-D7, 20000 nM, biological replicate 3): 7.3043 | Fold change compared to 3D7 ([1]; Supplementary Table 1, EC50 on PopD-D7 vs 3D7): 88 fold | EC50 ([2]; Plasmodium falciparum, 72 h, Supplementary Table 1, PopE-F10 (N330K)): 3.25 µM | resistance of the line compared with 3D7 ([2]; PopE-F10 (N330K), Fig 4B): highly resistant | (av-uRBC) / (DMSO-uRBC) x100 ([2]; PopE-F10, 3.04832 nM, biological replicate 1): 115.115 | (av-uRBC) / (DMSO-uRBC) x100 ([2]; PopE-F10, 3.04832 nM, biological replicate 2): 108.442 | (av-uRBC) / (DMSO-uRBC) x100 ([2]; PopE-F10, 3.04832 nM, biological replicate 3): 119.048 | (av-uRBC) / (DMSO-uRBC) x100 ([2]; PopE-F10, 9.14495 nM, biological replicate 1): 115.06 | (av-uRBC) / (DMSO-uRBC) x100 ([2]; PopE-F10, 9.14495 nM, biological replicate 2): 109.174 | (av-uRBC) / (DMSO-uRBC) x100 ([2]; PopE-F10, 9.14495 nM, biological replicate 3): 119.013 | (av-uRBC) / (DMSO-uRBC) x100 ([2]; PopE-F10, 27.4348 nM, biological replicate 1): 115.16 | (av-uRBC) / (DMSO-uRBC) x100 ([2]; PopE-F10, 27.4348 nM, biological replicate 2): 107.726 | (av-uRBC) / (DMSO-uRBC) x100 ([2]; PopE-F10, 27.4348 nM, biological replicate 3): 110.78 | (av-uRBC) / (DMSO-uRBC) x100 ([2]; PopE-F10, 82.3045 nM, biological replicate 1): 115.437 | (av-uRBC) / (DMSO-uRBC) x100 ([2]; PopE-F10, 82.3045 nM, biological replicate 2): 107.232 | (av-uRBC) / (DMSO-uRBC) x100 ([2]; PopE-F10, 82.3045 nM, biological replicate 3): 123.007 | (av-uRBC) / (DMSO-uRBC) x100 ([2]; PopE-F10, 246.914 nM, biological replicate 1): 112.345 | (av-uRBC) / (DMSO-uRBC) x100 ([2]; PopE-F10, 246.914 nM, biological replicate 2): 106.543 | (av-uRBC) / (DMSO-uRBC) x100 ([2]; PopE-F10, 246.914 nM, biological replicate 3): 116.449 | (av-uRBC) / (DMSO-uRBC) x100 ([2]; PopE-F10, 740.741 nM, biological replicate 1): 107.602 | (av-uRBC) / (DMSO-uRBC) x100 ([2]; PopE-F10, 740.741 nM, biological replicate 2): 102.914 | (av-uRBC) / (DMSO-uRBC) x100 ([2]; PopE-F10, 740.741 nM, biological replicate 3): 98.1859 | (av-uRBC) / (DMSO-uRBC) x100 ([2]; PopE-F10, 2222.22 nM, biological replicate 1): 85.8267 | (av-uRBC) / (DMSO-uRBC) x100 ([2]; PopE-F10, 2222.22 nM, biological replicate 2): 84.9625 | (av-uRBC) / (DMSO-uRBC) x100 ([2]; PopE-F10, 2222.22 nM, biological replicate 3): 59.2883 | (av-uRBC) / (DMSO-uRBC) x100 ([2]; PopE-F10, 6666.67 nM, biological replicate 1): 37.9433 | (av-uRBC) / (DMSO-uRBC) x100 ([2]; PopE-F10, 6666.67 nM, biological replicate 2): 28.6269 | (av-uRBC) / (DMSO-uRBC) x100 ([2]; PopE-F10, 6666.67 nM, biological replicate 3): 13.3438 | (av-uRBC) / (DMSO-uRBC) x100 ([2]; PopE-F10, 20000 nM, biological replicate 1): 11.6135 | (av-uRBC) / (DMSO-uRBC) x100 ([2]; PopE-F10, 20000 nM, biological replicate 2): 7.135 | (av-uRBC) / (DMSO-uRBC) x100 ([2]; PopE-F10, 20000 nM, biological replicate 3): 4.744 | Fold change compared to 3D7 ([2]; Supplementary Table 1, EC50 on PopE-F10 vs 3D7): 203 fold
